Measurements reported in patent US9206241B2, “Modified prokaryotic ubiquitin-like protein and methods of use thereof” (priority 2012, dated 2015).
“Also recorded” adds a separate entry of the source.

How the values were obtained:
lysates of Mtb = assay: Hydrolysis of substrate in Mtb lysates; type: biochemical, Mycobacterium tuberculosis
DopE10A = DopE10A (Mycobacterium tuberculosis, UniProt P9WNU9, E10A)

## MAQEQTKRGGGGGDDDDIAGSTAAGQERREKLTEETDDLLDEIDDV LEENAEDFVRAYVQKGG-Glu(AMC) [1a]
Lysates of Mtb
  hydrolysis of substrate in lysate: hydrolysis; also recorded: could not hydrolyze
DopE10A
  activity of DopE10A on the substrate: no activity
